Data as given in patent US20190321311A1, “Cancer Treatment by Simultaneous Targeting Energy Metabolism and Intracellular pH” (Deutsches Krebsforschungszentrum, priority 2016, published 2019).
Where two headings read alike, the source gives them in different places.

Key:
[1] = system: Mouse melanoma B16F10; assay: Cell viability assay, CellTiter-Glo, B16F10
Method: (§1) Indicated cells were treated with indicated drug combinations for 48 h or as indicated in conditions imitating tumor environment—RPMI supplemented with 10% FCS and 20 mM PIPES, adjusted to pH 6.5. After treatment, cells were analyzed for cell viability: • using CellTiter-Blue® Cell Viability Assay, Promega according to manufacturer recommendations. For each treatment, the fraction (%) of viable cells are indicated. Untreated viable cells were set to 100%. Average data of 2 independent experiments are presented. Each independent experiment contained 4 biological replicates for each condition. • using CellTiter-Glo® Cell Viability Assay, Promega according manufacturer recommendations. For each treatment the fraction (%) of viable cells are indicated. Untreated viable cells were set to 100%. Each measurement represents the mean value of 4 biological replicates for each condition.

[2] = system: Lung cancer H1975; assay: Cell viability assay, CellTiter-Glo, H1975; conditions: Homo sapiens, NCI-H1975, 72 h, pH 6.5, read-out: fraction (%) of viable cells
Method: as §1

[3] = system: H1975 cells; assay type: cell-based; conditions: H1975 cells expressing EC-GFP, Metformin for 48 hours
Description: FIG. 1: Treatment with Metformin and combined preparations causes an intracellular pH drop in cancer cell lines. Intracellular pH measurements were done in cells expressing a pH sensitive variant of GFP (EC-GFP). Live cells were imaged at 405 nm and 488 nm excitation wavelengths to record control and pH-sensitive emissions, correspondingly. Eight biological replicates were done for each treatment. Error bars correspond to mean values±s.d.; P≤0.0001. a. […] Confocal microscopy of H1975 and HEK293 live cells expressing EC-GFP treated with Metformin for 48 hours. To rule out a possibility that GFP signal fading is due to degradation, after exposure to the drug, cells were transferred to media with pH 8.8 supplemented with 5 μM Nigericin for 30 minutes before re-imaging (Metformin pH 8.8 rescue). b, c. […] Intracellular pH measurements were done after cells were treated alone or in combination with Rotenone or/and Nigericin, and with Papaverine or/and Salinomycin for 27 or 48 hours in pH 6.5 buffer, as indicated.
Intracellular pH in indicated cancer cell lines and non-cancer 293T cells was measured using cell lines stabile expressing pH sensitive EC-GFP at two different excitation wave length to obtain 488 nm/405 nm ratios. […] 488/405 ratios were quantified using ImageJ (NIH) software.

[4] = system: Sox4; assay type: cell-based; conditions: Metformin 72 hours
Method: Cells were densely seeded on 6-well plates. Starting on the following day, cells were treated with indicated drug combinations for 48 h in conditions imitating tumor environment: RPMI supplemented with 10% FCS and 20 mM PIPES, adjusted to pH 6.5. For non-cancer HEK293Tcells, non modified RPMI medium supplemented with 10% FCS was used. Cells were extracted only in Triton lysis buffer (as in example 3) and analyzed in Western Blot.
Cells were treated with combined preparations (Nigericin 10 nM, Rotenone 5 nM, Papaverine HCl 1 μm; Salinomycin 10 nM) with or without addition of NAC (N-acetyl cysteine) 1 mM, DOX (Doxycycline) and Minocycline 20 μM, Trolox (soluble form of vitamin E) 100 μM.

[5] = system: Sox4; assay type: cell-based; conditions: non-malignant HEK293t cells, Metformin 72 hours
Method: (§2) For gene expression measurement, cells were seeded in 6 well plates. On the following day, cells were treated with 6 mM Metformin for 48 h in normal RPMI medium supplemented with 10% FCS. Cells were harvested using Trypsin/EDTA and divided in up to 3 aliquots. A first aliquot was used for RNA preparation using RNeasy kit (Qiagen) and subsequent quantitative reverse transcription-PCR (qRT-PCR) analysis with LC480 LightCycler (Roche). A second aliquot was extracted with Saponin buffer (0.05% Saponin, 1 mM MgCl2, 1×TBS, 2 mM ME, 1× protein inhibitor cocktail (Roche) for obtaining cytoplasmic protein fraction. This fraction was used for b-catenin protein detection. Third aliquot was extracted with Triton lysis buffer ((TBS (50 mM Tris pH7.4, 150 mM NaCl, 2.7 mM KCl), 1% Triton X-100, 2 mM β-mercaptoethanol (ME), 1 mM MgCl2, 10 mM sodium pyrophosphate, 10 mM NaF, 1× proteinase inhibitor cocktail). This aliquot was used for Sox4 and a-tubulin (control) protein detection. For second and third aliquots 20-35 μl of buffer was used for 500 000 cells. After centrifugation extracts were used for Western blot analysis.
Experiments were done as in example 3. Cells were densely seeded on 6-well plates. […] For non-cancer HEK293Tcells, non modified RPMI medium supplemented with 10% FCS was used. Cells were extracted only in Triton lysis buffer (as in example 3) and analyzed in Western Blot.

[6] = system: Wnt signaling pathway; assay type: cell-based; conditions: cancer cell lines (FIG. 2A), 6 mM Metformin
Method: as §2
Experiment was done as in example 3. […] CHOP protein was detected in Triton lysis buffer extract.

[7] = system: Lung cancer H1975 cells; assay: Cell viability assay, CellTiter-Blue, H1975; conditions: Homo sapiens, NCI-H1975, 48 h, pH 6.5, read-out: fraction (%) of viable cells
Method: as §1

[8] = system: Breast cancer MDA-MB-231 cells; assay: Cell viability assay, CellTiter-Blue, MDA-MB-231; conditions: Homo sapiens, MDA-MB-231, 48 h, pH 6.5, read-out: fraction (%) of viable cells
Method: as §1

[9] = system: Colon cancer DLD1 cells; assay: Cell viability assay, CellTiter-Glo, DLD1
Method: as §1

[10] = system: Melanoma A375 cells; assay: Cell viability assay, CellTiter-Glo, A375; conditions: Homo sapiens, A-375, 48 h, pH 6.5, read-out: fraction (%) of viable cells
Method: as §1

[11] = system: Prostate cancer PC3 cells; assay: Cell viability assay, CellTiter-Glo, PC3; conditions: Homo sapiens, PC-3, 48 h, pH 6.5, read-out: fraction (%) of viable cells
Method: as §1

[12] = system: Pancreas cancer Bxpc3 cells; assay: Cell viability assay, CellTiter-Glo, Bxpc3; conditions: Homo sapiens, BXPC-3, 48 h, pH 6.5, read-out: fraction (%) of viable cells
Method: as §1

[13] = system: Colon cancer DLD1 cells; assay: Cell viability assay, CellTiter-Blue, DLD1; conditions: Homo sapiens, DLD-1, 72 h, pH 6.5, read-out: fraction (%) of viable cells
Method: as §1

[14] = Homo sapiens, DLD-1, 72 h, pH 6.5, read-out: fraction (%) of viable cells

Compound: Nc1ncnc2c1nc(Sc1ccc(Cl)cc1)n2[C@@H]1O[C@@H]2COP(=O)([O-])O[C@H]2[C@H]1O.[Na+] [8-CPT-cAMP, 8-(4-Chlorophenylthio)-adenosine-3′,5′-cyclic monophosphate]
- relative values of cell viability ([1]; 8-CPT-cAMP 100 μM alone, 48 h, pH 6.5): 86%

Compound: CO[C@@H]1[C@@H](OC)[C@H](C)[C@@](O)(CC(=O)O)O[C@H]1[C@H](C)[C@H]1O[C@@]2(CC[C@@](C)([C@H]3CC[C@@](C)([C@@H]4O[C@@H]([C@H]5O[C@](C)(O)[C@H](C)C[C@@H]5C)C[C@@H]4O[C@@H]4C[C@H](OC)[C@@H](OC)[C@H](C)O4)O3)O2)C[C@H](O)[C@H]1C [Maduramicin]
- viability at 0.004 µM ([1]; Mus musculus, B16-F10, 48 h, pH 6.5, read-out: fraction (%) of viable cells, Maduramicin 4.00 nM, Phenformin 0.00 μM, pH 6.5): 111%

Compound: [H]/N=C(/N)N/C(=N/[H])NCCc1ccccc1 [Phenformin]
- viability at 4 µM ([1]; Mus musculus, B16-F10, 48 h, pH 6.5, read-out: fraction (%) of viable cells, Phenformin 4 μM, Maduramicin 0.00 nM, pH 6.5 (Table 12)): 82%
- viability at 4 µM ([1]; Mus musculus, B16-F10, 48 h, pH 6.5, read-out: fraction (%) of viable cells, Phenformin 4 μM, Monensin 0.00 nM, pH 6.5 (Table 11)): 82%
- viability at 8 µM ([1]; Mus musculus, B16-F10, 48 h, pH 6.5, read-out: fraction (%) of viable cells, Phenformin 8 μM, Maduramicin 0.00 nM, pH 6.5 (Table 12)): 76%
- viability at 8 µM ([1]; Mus musculus, B16-F10, 48 h, pH 6.5, read-out: fraction (%) of viable cells, Phenformin 8 μM, Monensin 0.00 nM, pH 6.5 (Table 11)): 76%
- viability at 16 µM ([1]; Mus musculus, B16-F10, 48 h, pH 6.5, read-out: fraction (%) of viable cells, Phenformin 16 μM, Maduramicin 0.00 nM, pH 6.5 (Table 12)): 56%
- viability at 16 µM ([1]; Mus musculus, B16-F10, 48 h, pH 6.5, read-out: fraction (%) of viable cells, Phenformin 16 μM, Monensin 0.00 nM, pH 6.5 (Table 11)): 56%

Compound: CN(C)C(=N)N=C(N)N [Metformin]
- viability at 750 µM ([1]; Mus musculus, B16-F10, 48 h, pH 6.5, read-out: fraction (%) of viable cells, Metformin 750 μM, Monensin 0.00 nM, pH 6.5): 80%
- viability at 1500 µM ([1]; Mus musculus, B16-F10, 48 h, pH 6.5, read-out: fraction (%) of viable cells, Metformin 1500 μM, Monensin 0.00 nM, pH 6.5): 84%
- viability at 3000 µM ([1]; Mus musculus, B16-F10, 48 h, pH 6.5, read-out: fraction (%) of viable cells, Metformin 3000 μM, Monensin 0.00 nM, pH 6.5): 9%
- viability at 94 µM [2]: 84%
- viability at 188 µM [2]: 70%
- viability at 375 µM [2]: 45%
- intracellular pH [3]: causes intracellular acidification
- expression of endogenous Sox4 ([4]; DLD1 and HCT116 cells): inhibits expression of endogenous Sox4
- Wnt-inducible Sox4 expression ([4]; H1703 and H1299 cells, Wnt3a conditioned media 48 hours): inhibits Wnt-inducible Sox4
- expression of endogenous Sox4 ([4]; H1975 cells): inhibits expression of endogenous Sox4
- expression of Sox4 [5]: has no effect on Sox4
- wnt signaling (Axin2 mRNA, cytoplasmic b-catenin) [6]: wnt signaling inhibitor

Compound: C=C(C)[C@H]1Cc2c(ccc3c2O[C@@H]2COc4cc(OC)c(OC)cc4[C@@H]2C3=O)O1 [Rotenone]
- viability at 0.0025 µM [7]: 103%
- viability at 0.005 µM [7]: 104%
- viability at 0.01 µM [7]: 110%
- viability at 0.02 µM [7]: 84%
- viability at 0.0025 µM [8]: 98%
- viability at 0.005 µM [8]: 102%
- viability at 0.01 µM [8]: 99%
- viability at 0.02 µM [8]: 81%
- viability at 0.005 µM [9, 14]: 96%
- viability at 0.01 µM [9, 14]: 89%
- viability at 0.02 µM [9, 14]: 67%
- viability at 0.00125 µM [10]: 96%
- viability at 0.0025 µM [10]: 91%
- viability at 0.005 µM [10]: 75%
- viability at 0.005 µM [11]: 45%
- viability at 0.01 µM [11]: 4%
- viability at 0.02 µM [11]: 1%
- viability at 0.005 µM [12]: 104%
- viability at 0.01 µM [12]: 89%
- viability at 0.02 µM [12]: 59%
- viability at 0.005 µM [13]: 87%

Compound: C=C[C@@]1(C)CC(=O)[C@]2(O)[C@@]3(C)[C@@H](O)CCC(C)(C)[C@@H]3[C@H](O)[C@H](OC(C)=O)[C@@]2(C)O1 [Forskolin, forskolin]
- viability at 10 µM ([1]; Mus musculus, B16-F10, 48 h, pH 6.5, read-out: relative values of cell viability, Forskolin 10 μM alone, pH 6.5): 78%

Compound: CO[C@@H]1C[C@@H](C[C@H]2CC[C@H](C)[C@H]([C@@H](C)C(=O)O)O2)O[C@]2(O[C@](C)([C@H]3CC[C@@](C)([C@@H]4O[C@@H]([C@H]5O[C@@](O)(CO)[C@H](C)C[C@@H]5C)C[C@@H]4C)O3)C[C@H]2C)[C@@H]1C [Nigericin]
- viability at 0.0025 µM [7]: 93%
- viability at 0.005 µM [7]: 95%
- viability at 0.0025 µM [8]: 98%
- viability at 0.005 µM [8]: 101%
- viability at 0.005 µM [9, 14]: 107%
- viability at 0.01 µM [9, 14]: 103%
- viability at 0.00125 µM [10]: 58%
- viability at 0.0025 µM [10]: 7%
- viability at 0.005 µM [11]: 31%
- viability at 0.01 µM [11]: 0%
- viability at 0.005 µM [12]: 39%
- viability at 0.01 µM [12]: 35%

Compound: CC[C@@]1([C@@H]2O[C@@H]([C@H]3O[C@@](O)(CO)[C@H](C)C[C@@H]3C)C[C@@H]2C)CC[C@H]([C@]2(C)CC[C@]3(C[C@H](O)[C@@H](C)[C@@H]([C@@H](C)[C@@H](OC)[C@H](C)C(=O)O)O3)O2)O1 [Monensin]
- fraction (%) of viable cells ([9]; human, 72 h, 5 nM, pH 6.5): 112%
- viability at 0.005 µM [13]: 88%
- viability at 0.01 µM [13]: 72%
- viability at 0.02 µM [13]: 55%
- viability at 0.004 µM ([1]; Mus musculus, B16-F10, 48 h, pH 6.5, read-out: fraction (%) of viable cells, Monensin 4.00 nM, Metformin 0.00 μM, pH 6.5): 111%
- viability at 0.004 µM ([1]; Mus musculus, B16-F10, 48 h, pH 6.5, read-out: fraction (%) of viable cells, Monensin 4.00 nM, Phenformin 0.00 μM, pH 6.5): 95%
- viability at 0.005 µM [2]: 55%
